The record followed here is patent publication US8372871B2, “Histidinol dehydrogenase inhibitors, and use thereof as medicaments” (priority 2008, dated 2013).

Test system in the first data set: not given
Test: not given
Settings: not given
One may read the melting point as the temperature of the solid-liquid transition. For the compound `N[C@@H](Cc1c[nH]cn1)C(=O)Cc1ccc(-c2ccc(Br)cc2)cc1` (hydrate or solvate), the melting point is 199 °C (dec.).
For the compound `N[C@@H](Cc1c[nH]cn1)C(=O)Cc1ccc(-c2ccc(-c3ccccc3)cc2)cc1` (hydrate or solvate), the melting point is 200 °C (dec.).
`N[C@@H](Cc1c[nH]cn1)C(=O)Cc1ccc(/C=C/c2ccc(-c3ccccc3)cc2)cc1` (hydrate or solvate): the melting point was 200 °C (dec.).
Take `N[C@@H](Cc1c[nH]cn1)C(=O)Cc1ccc(C#Cc2ccc(-c3ccccc3)cc2)cc1` (hydrate or solvate): the melting point is 196 °C (dec.).
Take `Cc1ccc(-c2ccc(CC(=O)[C@@H](N)Cc3c[nH]cn3)cc2)cc1` (hydrate or solvate) [Compound 2a, (3S)-3-amino-4-(1H-imidazol-4-yl)-1-(4′-methylbiphenyl-4-yl)butan-2-one dihydrochlorhydrate]: the melting point is 203 °C (dec.).
Still for that read-out and setting: to `CCCCc1ccc(-c2ccc(CC(=O)[C@@H](N)Cc3c[nH]cn3)cc2)cc1` (hydrate or solvate) [Compound 2b, (3S)-3-amino-1-(4′-butylbiphenyl-4-yl)-4-(1H-imidazol-4-yl) butan-2-one dihydrochlorhydrate] belongs 155 °C (dec.); to `COc1ccc(-c2ccc(CC(=O)[C@@H](N)Cc3c[nH]cn3)cc2)cc1` (hydrate or solvate) [Compound 2c, (3S)-3-amino-4-(1H-imidazol-4-yl)-1-(4′-methoxybiphenyl-4-yl)butan-2-one dihydrochlorhydrate], 210 °C (dec.); to `N[C@@H](Cc1c[nH]cn1)C(=O)Cc1ccc(-c2ccc(C(F)(F)F)cc2)cc1` (hydrate or solvate) [Compound 2d, (3S)-3-amino-4-(1H-imidazol-4-yl)-1-[4′-(trifluoromethyl)biphenyl-4-yl]butan-2-one dihydrochlorhydrate], 149 °C (dec.).
Consider `N[C@@H](Cc1c[nH]cn1)C(=O)Cc1ccc(-c2ccc(Oc3ccccc3)cc2)cc1` (hydrate or solvate) [Compound 2f, (3S)-3-amino-4-(1H-imidazol-4-yl)-1-(4′-phenoxybiphenyl-4-yl)butan-2-one dihydrochlorhydrate], for which the melting point was 198 to 200 °C.
`N[C@@H](Cc1c[nH]cn1)C(=O)Cc1ccc(-c2ccc3ccccc3c2)cc1` (hydrate or solvate) [Compound 2h, (3S)-3-amino-4-(1H-imidazol-4-yl)-1-[4-(2-naphthhyl)phenyl] butan-2-one dihydrochlorhydrate]: the melting point is 205 °C (dec.).
`N[C@@H](Cc1c[nH]cn1)C(=O)Cc1ccc(CCc2ccccc2)cc1` (hydrate or solvate) [Compound 2i, (3S)-3-amino-4-(1H-imidazol-4-yl)-1-[4-(2-phenylethyl)phenyl] butan-2-one dihydrochlorhydrate] returned a melting point of 168 to 170 °C.
`N[C@@H](Cc1c[nH]cn1)C(=O)Cc1ccc(/C=C/c2ccccc2)cc1` (hydrate or solvate) [Compound 2j, (3S)-3-amino-4-(1H-imidazol-4-yl)-1-{4-[(E)-2-phenylvinyl]phenyl}butan-2-one dihydrochlorhydrate]: the melting point is 195 °C (dec.).
Same read-out and setting: next, `Cc1ccc(/C=C/c2ccc(CC(=O)[C@@H](N)Cc3c[nH]cn3)cc2)cc1` (hydrate or solvate) [Compound 2k, (3S)-3-amino-4-(1H-imidazol-4-yl)-1-{4-[(E)-2-(4-methylphenyl)vinyl]phenyl}butan-2-one dihydrochlorhydrate]: 200 °C (dec.); `N[C@@H](Cc1c[nH]cn1)C(=O)Cc1ccc(/C=C/c2ccc(C(F)(F)F)cc2)cc1` (hydrate or solvate) [Compound 2l, (3S)-3-amino-4-(1H-imidazol-4-yl)-1-(4-{(E)-2-[4-(trifluoromethyl)phenyl]vinyl}phenyl) butan-2-one dihydrochlorhydrate]: 186 °C (dec.).
The same measure, in the same setting: next, `N[C@@H](Cc1c[nH]cn1)C(=O)Cc1ccc(/C=C/Cc2ccccc2)cc1` (hydrate or solvate) [Compound 2m, (3S)-3-amino-4-(1H-imidazol-4-yl)-1-{4-[(1E)-3-phenylprop-1-en-1-yl]phenyl}butan-2-one dihydrochlorhydrate]: 178 to 180 °C; `N[C@@H](Cc1c[nH]cn1)C(=O)Cc1ccc(C#Cc2ccccc2)cc1` (hydrate or solvate) [Compound 3a, (3S)-3-amino-4-(1H-imidazol-4-yl)-1-[4-(phenylethynyl)phenyl] butan-2-one dihydrochlorhydrate]: 194 °C (dec.); `Cc1ccc(C#Cc2ccc(CC(=O)[C@@H](N)Cc3c[nH]cn3)cc2)cc1` (hydrate or solvate) [Compound 3b, (3S)-3-amino-4-(1H-imidazol-4-yl)-1-{4-[(4-methylphenyl)ethynyl]phenyl}butan-2-one dihydrochlorhydrate]: 181 °C (dec.).
Take `CCCCCc1ccc(C#Cc2ccc(CC(=O)[C@@H](N)Cc3c[nH]cn3)cc2)cc1` (hydrate or solvate) [Compound 3d, (3S)-3-amino-4-(1H-imidazol-4-yl)-1-{4-[(4-pentylphenyl)ethynyl]phenyl}butan-2-one dihydrochlorhydrate]: the melting point was 184 °C (dec.).

The next data set has as its system B. suis. The data set is described as follows: microbe, parasite or virus in culture. Type of data set: cell-based, Brucella suis. The conditions noted are these: Brucella suis, 168 h, read-out: Effects on the growth of B. suis (%) (inhibition of bacterial growth).
By inhibition is commonly meant the change of the read-out against control, counted positive when it falls. As for `Cc1ccc(-c2ccc(CC(=O)[C@@H](N)Cc3c[nH]cn3)cc2)cc1` [Compound 2a, (3S)-3-amino-4-(1H-imidazol-4-yl)-1-(4′-methylbiphenyl-4-yl)butan-2-one dihydrochlorhydrate], the inhibition at 50 µM was 30% and the inhibition at 100 µM turned out to be 40%.

For the next data set, the target named is B. suis histidinol dehydrogenase (Brucella suis biovar 1, UniProt Q8G2R2). The data set is described as follows: biochemical. It is filed as biochemical.
B. suis histidinol dehydrogenase, sequence (Q8G2R2 whole entry, looked up): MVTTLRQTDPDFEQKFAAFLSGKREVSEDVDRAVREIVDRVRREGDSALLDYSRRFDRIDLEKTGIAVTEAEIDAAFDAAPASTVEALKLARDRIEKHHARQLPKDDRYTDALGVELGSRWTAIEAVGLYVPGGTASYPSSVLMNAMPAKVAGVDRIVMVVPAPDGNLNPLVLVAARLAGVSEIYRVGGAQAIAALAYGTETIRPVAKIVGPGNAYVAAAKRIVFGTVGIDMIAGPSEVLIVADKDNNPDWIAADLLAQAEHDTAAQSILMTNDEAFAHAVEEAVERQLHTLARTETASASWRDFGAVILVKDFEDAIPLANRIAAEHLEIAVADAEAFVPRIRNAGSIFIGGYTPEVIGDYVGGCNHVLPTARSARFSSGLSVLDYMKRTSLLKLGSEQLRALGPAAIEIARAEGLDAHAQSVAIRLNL
Settings: not given
One may read the IC50 as the midpoint of a concentration-inhibition curve. Low readings indicate higher potency, high ones lower potency. `Cc1ccc(-c2ccc(CC(=O)[C@@H](N)Cc3c[nH]cn3)cc2)cc1` [Compound 2a, (3S)-3-amino-4-(1H-imidazol-4-yl)-1-(4′-methylbiphenyl-4-yl)butan-2-one dihydrochlorhydrate] came in with an IC50 of 30 nM.
The compound `N[C@@H](Cc1c[nH]cn1)C(=O)Cc1ccc(CCc2ccccc2)cc1` [Compound 2i, (3S)-3-amino-4-(1H-imidazol-4-yl)-1-[4-(2-phenylethyl)phenyl] butan-2-one dihydrochlorhydrate] came in with an IC50 of 13 nM.
`N[C@@H](Cc1c[nH]cn1)C(=O)Cc1ccc(/C=C/c2ccccc2)cc1` [Compound 2j, (3S)-3-amino-4-(1H-imidazol-4-yl)-1-{4-[(E)-2-phenylvinyl]phenyl}butan-2-one dihydrochlorhydrate]: 25 nM corresponded to half-maximal inhibition (IC50). Compared with the last compound, the IC50 is about 1.9-fold higher.
The compound `N[C@@H](Cc1c[nH]cn1)C(=O)Cc1ccc(/C=C/c2ccc(C(F)(F)F)cc2)cc1` [Compound 2l, (3S)-3-amino-4-(1H-imidazol-4-yl)-1-(4-{(E)-2-[4-(trifluoromethyl)phenyl]vinyl}phenyl) butan-2-one dihydrochlorhydrate] yielded an IC50 of 65 nM. Compared with the last compound, the IC50 is about 2.6-fold higher.
Compound `N[C@@H](Cc1c[nH]cn1)C(=O)Cc1ccc(/C=C/Cc2ccccc2)cc1` [Compound 2m, (3S)-3-amino-4-(1H-imidazol-4-yl)-1-{4-[(1E)-3-phenylprop-1-en-1-yl]phenyl}butan-2-one dihydrochlorhydrate] returned a half-inhibitory concentration (IC50) of 30 nM.
As to `Cc1ccc(C#Cc2ccc(CC(=O)[C@@H](N)Cc3c[nH]cn3)cc2)cc1` [Compound 3b, (3S)-3-amino-4-(1H-imidazol-4-yl)-1-{4-[(4-methylphenyl)ethynyl]phenyl}butan-2-one dihydrochlorhydrate], the IC50 was 40 nM.
